Data published in patent US5891435A, “Methods and compositions for delaying or preventing the onset of autoimmune disease” (Research Corporation Technologies, Inc., priority 1993, dated 1999).
“Also recorded” adds a separate entry of the source.

Experiments:
NOD mice [1] = assay: Subcutaneous immunization in IFA, development of diabetes in NOD mice; format: in vivo, mouse; conditions: for Protective effect against diabetes (in words): subcutaneous immunization in IFA; for IDD rate (frequency of diabetes): subcutaneous immunization in IFA from 4 weeks of age, FIG. 1
Text: NOD/Uf mice (Winter [1990] Diabetes 39:975-982) were bred and maintained in the temperature and light controlled facility of the Department of Pathology at the University of Florida. After weaning at 3-4 weeks of age, littermates were housed in groups of no more than 6 per cage. A soy and […]-based chow (Harlan, Madison, Wis.) and water were available ad libitum. Typical diabetes rates in the NOD/Uf colony at 40 weeks of age are near 90% in females and 30% in males. Littermates were divided into 3 groups. […] Complete Freund's adjuvant was avoided because of its known protective effect in NOD mice (Qin et al. [1993] J. Immunol. 150:2072-2080). […] Treatments started at 4 weeks of age and subsequent immunizations were administered at ages 12, 16, and 22 weeks. […] In addition, 2 new treatments were assessed. […] As in the first study, immunizations were given in IFA commencing at 4 weeks of age, but subsequent injections were given at 8 week intervals. In a third NOD mouse experiment, controlled by 18, 0.9% saline+IFA-treated littermates (10 female and 8 male), 18 mice received 250 μg BSA (Sigma) in IFA (10 female and 8 male). A third group of 21 littermates was treated with 100 μg of the 17 amino acid component peptide of BSA called ABBOS in IFA (11 female and 10 male). This peptide has been proposed as an environmental molecular mimic of an endogenous islet protein. Venous blood samples, obtained from the tail vein or retro-orbital sinus were tested serially for glucose and IAA. Blood glucose was determined using a Chemstrip bG (Boehringer Mannheim) read visually as verified by a reflectance meter. Diabetes was diagnosed when the whole blood glucose level was greater than 240 mg/dl (13.3 mmol/L). A liquid phase competitive radiobinding assay using 1:3 diluted mouse sera was used to determine IAA […] al. [1987] Diabetes 36:1286-1291). Normal murine levels, established from a survey of 48 mice from six different strains that were not susceptible to spontaneous diabetes were considered to be below 180 nU/ml (3 standard deviations above mean). The method of Kaplan and Meier (Kaplan and Meier [1958] J. Am. Stat. Assoc. 53:457-481) was used to construct life tables and the logrank Chi-square statistic was used to compare them (Mantel, N. (1966) Cancer Chemother. Rep. 50:163-170). A Student t-test or one-way ANOVA was used when appropriate to compare means. Fisher's exact test was applied to compare frequencies in the adoptive transfer studies.

NOD mice [2] = conditions: cited from earlier work
NOD mice [3] = assay: Insulitis score / pancreatic histology of immunized NOD mice; format: in vivo, mouse; conditions: NOD mice immunized subcutaneously in IFA; non-diabetic survivors at 40 weeks
Protocol: (§1) Non-diabetic mice in the subcutaneous immunization protocol that survived to 40 weeks were sacrificed at that age. Their pancreata were removed, fixed in 10% formalin and stained for light microscopic examination with hematoxylin and eosin. The slides were coded and a consensus insulitis score was determined by 3 examiners before the code was broken. The presence of insulitis was scored using a previously described dual scale that assesses both the severity of immune infiltration and the cytoarchitectural disruption. Finally, the pancreata from the modulator cell donors in the adoptive transfer studies were similarly reviewed at 10 weeks of age. Pancreata from 8 of 10 recipients (only 2 of 4 mice receiving B chain modulator cells were sacrificed) were analyzed 20 days after their adoptive transfer.

[4] = test system: irradiated NOD recipients; assay: Adoptive co-transfer of splenocytes from immunized and acutely diabetic NOD mice to irradiated NOD recipients; format: in vivo, mouse; conditions: for Transfer of protection by splenocytes of immunized mice (in words): irradiated NOD recipients, adoptive co-transfer
Text: At age 10 weeks, splenocyte pools were obtained from these mice, each pool comprising cells from 3 similarly treated animals. These "modulator" splenocytes were mixed with an equal number of pooled splenocytes that had been harvested from 6 untreated, acutely diabetic NOD mice. Six hours after a 700 Rad dose of γ-irradiation, 10 previously untreated, non-diabetic, 10 week old male NOD mice received an intravenous infusion containing a total of 40×10^6 cells from one of the mixtures, i.e. 3 diluent-, 3 A chain-, and 4 B chain-treated animals.
(§2) Venous blood samples, obtained from the tail vein or retro-orbital sinus were tested serially for glucose and IAA. Blood glucose was determined using a Chemstrip bG (Boehringer Mannheim) read visually as verified by a reflectance meter. Diabetes was diagnosed when the whole blood glucose level was greater than 240 mg/dl (13.3 mmol/L). A liquid phase competitive radiobinding assay using 1:3 diluted mouse sera was used to determine IAA titer (Vardi et al. [1987] Diabetes 36:1286-1291). Normal murine levels, established from a survey of 48 mice from six different strains that were not susceptible to spontaneous diabetes were considered to be below 180 nU/ml (3 standard deviations above mean).
as §1
The method of Kaplan and Meier (Kaplan and Meier [1958] J. Am. Stat. Assoc. 53:457-481) was used to construct life tables and the logrank Chi-square statistic was used to compare them (Mantel, N. (1966) Cancer Chemother. Rep. 50:163-170). A Student t-test or one-way ANOVA was used when appropriate to compare means. Fisher's exact test was applied to compare frequencies in the adoptive transfer studies. P-values are 2-sided.

insulin antibodies = assay: Insulin antibodies (IAA) in serum of immunized NOD mice, competitive radiobinding assay; format: in vivo, mouse; conditions: NOD mice immunized subcutaneously in IFA
Protocol: Littermates were divided into 3 groups. […] Complete Freund's adjuvant was avoided because of its known protective effect in NOD mice (Qin et al. [1993] J. Immunol. 150:2072-2080). […] Treatments started at 4 weeks of age and subsequent immunizations were administered at ages 12, 16, and 22 weeks. […] In addition, 2 new treatments were assessed. […] As in the first study, immunizations were given in IFA commencing at 4 weeks of age, but subsequent injections were given at 8 week intervals. In a third NOD mouse experiment, controlled by 18, 0.9% saline+IFA-treated littermates (10 female and 8 male), 18 mice received 250 μg BSA (Sigma) in IFA (10 female and 8 male). A third group of 21 littermates was treated with 100 μg of the 17 amino acid component peptide of BSA called ABBOS in IFA (11 female and 10 male).
as §2

[5] = irradiated male NOD recipients of splenocytes from treated donors plus diabetic donors, diabetic/total

Substance | Protective effect against diabetes (in words) (NOD mice [1]) | IDD rate (frequency of diabetes) (NOD mice [1]) | Insulitis / pancreatic histology (in words) (NOD mice [3]) | Number of Diabetic Mice, Day 10 [4, 5] | Number of Diabetic Mice, Day 20 [4, 5] | Insulin antibody level / insulin binding activity in serum (in words) (insulin antibodies) | other results
insulin: purified porcine NPH insulin (first study) or recombinant human NPH insulin (second study, FIG. 1), given subcutaneously in incomplete Freund's adjuvant [reference compound] | significantly reduced the incidence of diabetes; also recorded: strong protection for diabetes was achieved; also recorded: significantly reduce the incidence of IDD; also recorded: excellent protection against IDD | under 13% | incidence and severity of insulitis were little affected, or actually increased; also recorded: not significantly reduced; also recorded: neither insulin nor B chain immunizations diminished insulitis | – | – | – | Protection from hyperglycemia and insulitis (in words) (NOD mice [2]; extended prophylactic course of daily subcutaneous injections, NOD mice (Atkinson et al. 1990)): protected NOD mice from both hyperglycemia and islet infiltration by mononuclear leukocytes (insulitis); Response to oral insulin (in words) (NOD mice [2]; oral, NOD mice (Zhang et al. 1991)): beneficial response
glutamic acid decarboxylase [human GAD65] | onset of diabetes has been delayed | – | – | – | – | – | –
B chain: recombinant human B chain insulin, given in IFA | resulted in protection from diabetes; also recorded: protection conferred by subcutaneous insulin immunization was duplicated; also recorded: all of the protection was localized to the B chain | 16% | neither insulin nor B chain immunizations diminished insulitis | 0/4 | 0/4 | stimulated high levels of insulin antibodies; also recorded: high insulin binding activity in serum | Protective effect against diabetes (in words) (NOD mice [1]; listed as B chain of insulin): reproduced the protective effect of insulin; also recorded: excellent protection against IDD; Protective effect against diabetes (in words) (NOD mice [1]; listed as insulin B chain): protection equal or superior to that conferred by intact insulin; Time for which diabetes was prevented after co-transfer ([4]; co-transfer of splenocytes from treated and acutely diabetic mice, p=0.03): at least 75 days; Transfer of protection by splenocytes of immunized mice (in words) [4]: able to confer the protective effect on irradiated NOD recipients; Transfer of protection by splenocytes of immunized mice (in words) ([4]; listed as B chain of insulin): able to protect irradiated, recipient mice; Number of Diabetic Mice, Day 75 [4, 5]: 0/2
A chain: recombinant human A chain insulin, given in IFA | had no protective effects | 53% | – | 0/3 | 3/3 | high insulin binding activity in serum | Protective effect against diabetes (in words) (NOD mice [1]; listed as A chain insulin): did not however alter the course of IDD; Insulin antibody level / insulin binding activity in serum (in words) (insulin antibodies; listed as A): stimulated high levels of insulin antibodies
bovine serum albumin [BSA, reference compound] | had no protective effects | – | – | – | – | – | –
